Assays:
[1] = target: T1, TNKS2 (Homo sapiens, UniProt Q9H2K2); experiment: TNKS2 Assay B (auto-parsylation, [3H]-NAD+ SPA); format: biochemical; details: 6 nM TNKS2, auto-parsylation, over night at room temperature
T1 construct: purchased BPS Bioscience, San Diego, USA 80572 (TNKS2 Histone Ribosylation Assay Kit)
T1 sequence (Q9H2K2 1-1166): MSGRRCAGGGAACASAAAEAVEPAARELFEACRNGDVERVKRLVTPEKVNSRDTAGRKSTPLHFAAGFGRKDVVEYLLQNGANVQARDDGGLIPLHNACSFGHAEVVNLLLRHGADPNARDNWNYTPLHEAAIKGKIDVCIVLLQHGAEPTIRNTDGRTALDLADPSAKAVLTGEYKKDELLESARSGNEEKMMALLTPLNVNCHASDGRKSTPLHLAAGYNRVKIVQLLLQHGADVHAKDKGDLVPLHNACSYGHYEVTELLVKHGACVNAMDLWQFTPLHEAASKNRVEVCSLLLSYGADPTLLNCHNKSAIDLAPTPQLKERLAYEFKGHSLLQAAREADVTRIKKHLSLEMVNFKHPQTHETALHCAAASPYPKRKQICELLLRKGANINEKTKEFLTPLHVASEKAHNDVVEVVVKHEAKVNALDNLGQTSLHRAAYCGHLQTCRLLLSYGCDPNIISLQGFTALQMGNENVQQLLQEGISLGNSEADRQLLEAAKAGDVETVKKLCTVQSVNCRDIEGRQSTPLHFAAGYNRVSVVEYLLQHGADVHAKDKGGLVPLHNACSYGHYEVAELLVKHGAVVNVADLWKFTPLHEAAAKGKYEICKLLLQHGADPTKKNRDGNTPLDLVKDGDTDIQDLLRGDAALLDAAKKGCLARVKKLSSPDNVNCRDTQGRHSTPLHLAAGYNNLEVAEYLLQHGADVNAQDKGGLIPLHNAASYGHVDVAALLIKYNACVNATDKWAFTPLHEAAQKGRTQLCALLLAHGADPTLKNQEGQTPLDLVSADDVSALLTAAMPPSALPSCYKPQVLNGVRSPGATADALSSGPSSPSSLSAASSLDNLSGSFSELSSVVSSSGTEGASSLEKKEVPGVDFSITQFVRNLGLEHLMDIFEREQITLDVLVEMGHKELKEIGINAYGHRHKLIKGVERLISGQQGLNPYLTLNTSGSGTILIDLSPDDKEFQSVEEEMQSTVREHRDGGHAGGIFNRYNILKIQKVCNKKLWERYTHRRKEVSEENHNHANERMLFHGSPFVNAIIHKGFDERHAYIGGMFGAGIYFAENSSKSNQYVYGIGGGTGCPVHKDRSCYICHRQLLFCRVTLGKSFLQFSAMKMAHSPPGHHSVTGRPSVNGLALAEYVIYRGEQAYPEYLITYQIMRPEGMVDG

[2] = test system: HEK293 cells cotransfected with the FOP control vector; experiment: HEK293 FOP assay (control reporter with non-functional TCF elements); format: cell-based; details: Homo sapiens, 16 hours
How it was run: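 Stable HEK293 line carrying FOP control reporter (randomized non-functional TCF sites, with pcDNA3), Geneticin-selected, plated 24 h before assay. Stimulated with recombinant human Wnt-3a (2500-5 ng/ml) and compounds 50 μM–15 nM (3.16-fold steps) in CAFTY buffer pH 7.4 with 2 mM Ca2+, 0.01% BSA, run parallel to TOP line.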

Structure (SMILES) | IC50 [1] [nM] | IC50 [2] [nM]
Cc1cc(C)n2ncc(C(=O)N[C@H]3CC[C@H](C(=O)Nc4ccncc4Cl)CC3)c2n1 [Example 102, N-{trans-4-[(3-chloropyridin-4-yl)carbamoyl]cyclohexyl}-5,7-dimethylpyrazolo[1,5-a]pyrimidine-3-carboxamide] | 200 | ≥ 50000
O=C(N[C@H]1CC[C@H](C(=O)Nc2ccncc2Cl)CC1)c1cnn2cccnc12 [Example 105, N-{trans-4-[(3-chloropyridin-4-yl)carbamoyl]cyclohexyl}pyrazolo[1,5-a]pyrimidine-3-carboxamide] | 120 | ≥ 50000
CCOC(=O)c1cnc2c(C(=O)N[C@H]3CC[C@H](C(=O)Nc4ccc(F)cc4Cl)CC3)cnn2c1 [Example 106, ethyl 3-({trans-4-[(2-chloro-4-fluorophenyl)carbamoyl]cyclohexyl}carbamoyl)pyrazolo[1,5-a]pyrimidine-6-carboxylate] | 15 | ≥ 50000
O=C(N[C@H]1CC[C@H](C(=O)Nc2ccc(F)cc2Cl)CC1)c1cnn2ccc(N3CCOCC3)nc12 [Example 107, N-{trans-4-[(2-chloro-4-fluorophenyl)carbamoyl]cyclohexyl}-5-(morpholin-4-yl)pyrazolo[1,5-a]pyrimidine-3-carboxamide] | 74 | ≥ 50000
O=C(N[C@H]1CC[C@H](C(=O)Nc2ccc(F)cc2Cl)CC1)c1cnn2ccc(N3CCCC3)nc12 [Example 108] | 60 | ≥ 50000
CN1CCN(c2ccn3ncc(C(=O)N[C@H]4CC[C@H](C(=O)Nc5ccc(F)cc5Cl)CC4)c3n2)CC1 [Example 109] | 38 | ≥ 50000
COCc1cc(C)n2ncc(C(=O)N[C@H]3CC[C@H](C(=O)Nc4ccc(F)cc4Cl)CC3)c2n1 [Example 110, N-{trans-4-[(2-chloro-4-fluorophenyl)carbamoyl]cyclohexyl}-5-(methoxymethyl)-7-methylpyrazolo[1,5-a]pyrimidine-3-carboxamide] | 86 | ≥ 50000
COCc1cc(C)nc2c(C(=O)N[C@H]3CC[C@H](C(=O)Nc4ccc(F)cc4Cl)CC3)cnn12 [Example 111, N-{trans-4-[(2-chloro-4-fluorophenyl)carbamoyl]cyclohexyl}-7-(methoxymethyl)-5-methylpyrazolo[1,5-a]pyrimidine-3-carboxamide] | 210 | ≥ 50000
COCc1cc(C)n2ncc(C(=O)N[C@H]3CC[C@H](C(=O)Nc4c(F)cc(F)cc4Cl)CC3)c2n1 [Example 112, N-{trans-4-[(2-chloro-4,6-difluorophenyl)carbamoyl]cyclohexyl}-5-(methoxymethyl)-7-methylpyrazolo[1,5-a]pyrimidine-3-carboxamide] | 68 | ≥ 50000
CNC(=O)c1[nH]cnc1C(=O)NC12CCC(C(=O)Nc3c(F)cc(F)cc3Cl)(CC1)CC2 [Example 116, N^4-{4-[(2-chloro-4,6-difluorophenyl)carbamoyl]bicyclo[2.2.2]oct-1-yl}-N^5-methyl-1H-imidazole-4,5-dicarboxamide] | 590 | 8700
O=C(NC12CCC(C(=O)Nc3ccc(F)cc3Cl)(CC1)CC2)c1cnn2cccnc12 [Example 117, N-{4-[(2-chloro-4-fluorophenyl)carbamoyl]bicyclo[2.2.2]oct-1-yl}pyrazolo[1,5-a]pyrimidine-3-carboxamide] | 460 | ≥ 50000
O=C(NC12CCC(C(=O)Nc3c(F)cc(F)cc3Cl)(CC1)CC2)c1cnn2cccnc12 [Example 119, N-{4-[(2-chloro-4,6-difluorophenyl)carbamoyl]bicyclo[2.2.2]oct-1-yl}pyrazolo[1,5-a]pyrimidine-3-carboxamide] | 610 | ≥ 50000
Cc1cc(NC(=O)C23CCC(NC(=O)c4cnc5cccnn45)(CC2)CC3)c(Cl)cc1F [Example 122, N-{4-[(2-chloro-4-fluoro-5-methylphenyl)carbamoyl]bicyclo[2.2.2]oct-1-yl}imidazo[1,2-b]pyridazine-3-carboxamide] | 190 | ≥ 50000
O=C(NC12CCC(C(=O)Nc3cnccc3Cl)(CC1)CC2)c1cnc2cccnn12 [Example 124, N-{4-[(4-chloropyridin-3-yl)carbamoyl]bicyclo[2.2.2]oct-1-yl}imidazo[1,2-b]pyridazine-3-carboxamide] | 260 | 8900
Cc1cc(C)n2ncc(C(=O)NC34CCC(C(=O)Nc5ccc(F)cc5Cl)(CC3)CC4)c2n1 [Example 125, N-{4-[(2-chloro-4-fluorophenyl)carbamoyl]bicyclo[2.2.2]oct-1-yl}-5,7-dimethylpyrazolo[1,5-a]pyrimidine-3-carboxamide] | 130 | ≥ 50000

More lines, in order of falling IC50 [1], values ahead:

IC50 [1] [nM] | Structure (SMILES) | IC50 [2] [nM]
480 | CC(O)CNc1ccc2ncc(C(=O)N[C@H]3CC[C@H](C(=O)Nc4ccc(F)cc4Cl)CC3)n2n1 (stereo partly drawn) [Example 114, N-{trans-4-[(2-chloro-4-fluorophenyl)carbamoyl]cyclohexyl}-6-[(2-hydroxypropyl)amino]imidazo[1,2-b]pyridazine-3-carboxamide] | ≥ 50000
480 | O=C(NC12CCC(C(=O)Nc3c(F)cc(F)cc3Cl)(CC1)CC2)c1cnc2cccnn12 [Example 123, N-{4-[(2-chloro-4,6-difluorophenyl)carbamoyl]bicyclo[2.2.2]oct-1-yl}imidazo[1,2-b]pyridazine-3-carboxamide] | ≥ 50000
330 | O=C(NC12CCC(C(=O)Nc3ccc(F)cc3Cl)(CC1)CC2)c1cnc2cccnn12 [Example 121, N-{4-[(2-chloro-4-fluorophenyl)carbamoyl]bicyclo[2.2.2]oct-1-yl}imidazo[1,2-b]pyridazine-3-carboxamide] | ≥ 50000
290 | O=C(N[C@H]1CC[C@H](C(=O)Nc2ccncc2Cl)CC1)c1cnc2cccnn12 [Example 103, N-{trans-4-[(3-chloropyridin-4-yl)carbamoyl]cyclohexyl}imidazo[1,2-b]pyridazine-3-carboxamide] | 27000
260 | O=C(NC12CCC(C(=O)Nc3cnccc3Cl)(CC1)CC2)c1cnn2cccnc12 [Example 120, N-{4-[(4-chloropyridin-3-yl)carbamoyl]bicyclo[2.2.2]oct-1-yl}pyrazolo[1,5-a]pyrimidine-3-carboxamide] | 7100
190 | CNC(=O)c1[nH]cnc1C(=O)NC12CCC(C(=O)Nc3ccc(F)cc3Cl)(CC1)CC2 [Example 115, N^4-{4-[(2-chloro-4-fluorophenyl)carbamoyl]bicyclo[2.2.2]oct-1-yl}-N^5-methyl-1H-imidazole-4,5-dicarboxamide] | ≥ 50000
67 | Cc1cc(NC(=O)C23CCC(NC(=O)c4cnn5cccnc45)(CC2)CC3)c(Cl)cc1F [Example 118, N-{4-[(2-chloro-4-fluoro-5-methylphenyl)carbamoyl]bicyclo[2.2.2]oct-1-yl}pyrazolo[1,5-a]pyrimidine-3-carboxamide] | ≥ 50000
66 | Cc1cnc2c(C(=O)N[C@H]3CC[C@H](C(=O)Nc4ccncc4Cl)CC3)cnn2c1 [Example 104, N-{trans-4-[(3-chloropyridin-4-yl)carbamoyl]cyclohexyl}-6-methyl pyrazolo[1,5-a]pyrimidine-3-carboxamide] | ≥ 50000
65 | Cc1cc(C)n2ncc(C(=O)NC34CCC(C(=O)Nc5cc(C)c(F)cc5Cl)(CC3)CC4)c2n1 [Example 126, N-{4-[(2-chloro-4-fluoro-5-methylphenyl)carbamoyl]bicyclo[2.2.2]oct-1-yl}-5,7-dimethylpyrazolo[1,5-a]pyrimidine-3-carboxamide] | ≥ 50000
52 | Cc1nc2c(C(=O)N[C@H]3CC[C@H](C(=O)Nc4ccc(F)cc4Cl)CC3)cnn2c2c1CCC2 [Example 113, N-{trans-4-[(2-chloro-4-fluorophenyl)carbamoyl]cyclohexyl}-5-methyl-7,8-dihydro-6H-cyclopenta[e]pyrazolo[1,5-a]pyrimidine-3-carboxamide] | ≥ 50000
